The target in this experiment is ATR kinase (full-length ATR) (Homo sapiens (Human), UniProt Q13535). The experiment can be described thus: ATR inhibition assay (radioactive-phosphate incorporation). It counts as biochemical. Put shortly: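 Ki(app) was fitted by non-linear regression to background-corrected initial rates. Full-length ATR (5 nM) phosphorylated 800 μM peptide using 10 μM [γ-33P]ATP at 25° C in Tris/HCl pH 7.5 buffer with MgCl2, DTT and 7% DMSO. After 10-minute compound pre-incubation and 24-hour reaction, phosphocellulose filters were scintillation counted.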
Chain of ATR kinase (full-length ATR) (Q13535 whole entry): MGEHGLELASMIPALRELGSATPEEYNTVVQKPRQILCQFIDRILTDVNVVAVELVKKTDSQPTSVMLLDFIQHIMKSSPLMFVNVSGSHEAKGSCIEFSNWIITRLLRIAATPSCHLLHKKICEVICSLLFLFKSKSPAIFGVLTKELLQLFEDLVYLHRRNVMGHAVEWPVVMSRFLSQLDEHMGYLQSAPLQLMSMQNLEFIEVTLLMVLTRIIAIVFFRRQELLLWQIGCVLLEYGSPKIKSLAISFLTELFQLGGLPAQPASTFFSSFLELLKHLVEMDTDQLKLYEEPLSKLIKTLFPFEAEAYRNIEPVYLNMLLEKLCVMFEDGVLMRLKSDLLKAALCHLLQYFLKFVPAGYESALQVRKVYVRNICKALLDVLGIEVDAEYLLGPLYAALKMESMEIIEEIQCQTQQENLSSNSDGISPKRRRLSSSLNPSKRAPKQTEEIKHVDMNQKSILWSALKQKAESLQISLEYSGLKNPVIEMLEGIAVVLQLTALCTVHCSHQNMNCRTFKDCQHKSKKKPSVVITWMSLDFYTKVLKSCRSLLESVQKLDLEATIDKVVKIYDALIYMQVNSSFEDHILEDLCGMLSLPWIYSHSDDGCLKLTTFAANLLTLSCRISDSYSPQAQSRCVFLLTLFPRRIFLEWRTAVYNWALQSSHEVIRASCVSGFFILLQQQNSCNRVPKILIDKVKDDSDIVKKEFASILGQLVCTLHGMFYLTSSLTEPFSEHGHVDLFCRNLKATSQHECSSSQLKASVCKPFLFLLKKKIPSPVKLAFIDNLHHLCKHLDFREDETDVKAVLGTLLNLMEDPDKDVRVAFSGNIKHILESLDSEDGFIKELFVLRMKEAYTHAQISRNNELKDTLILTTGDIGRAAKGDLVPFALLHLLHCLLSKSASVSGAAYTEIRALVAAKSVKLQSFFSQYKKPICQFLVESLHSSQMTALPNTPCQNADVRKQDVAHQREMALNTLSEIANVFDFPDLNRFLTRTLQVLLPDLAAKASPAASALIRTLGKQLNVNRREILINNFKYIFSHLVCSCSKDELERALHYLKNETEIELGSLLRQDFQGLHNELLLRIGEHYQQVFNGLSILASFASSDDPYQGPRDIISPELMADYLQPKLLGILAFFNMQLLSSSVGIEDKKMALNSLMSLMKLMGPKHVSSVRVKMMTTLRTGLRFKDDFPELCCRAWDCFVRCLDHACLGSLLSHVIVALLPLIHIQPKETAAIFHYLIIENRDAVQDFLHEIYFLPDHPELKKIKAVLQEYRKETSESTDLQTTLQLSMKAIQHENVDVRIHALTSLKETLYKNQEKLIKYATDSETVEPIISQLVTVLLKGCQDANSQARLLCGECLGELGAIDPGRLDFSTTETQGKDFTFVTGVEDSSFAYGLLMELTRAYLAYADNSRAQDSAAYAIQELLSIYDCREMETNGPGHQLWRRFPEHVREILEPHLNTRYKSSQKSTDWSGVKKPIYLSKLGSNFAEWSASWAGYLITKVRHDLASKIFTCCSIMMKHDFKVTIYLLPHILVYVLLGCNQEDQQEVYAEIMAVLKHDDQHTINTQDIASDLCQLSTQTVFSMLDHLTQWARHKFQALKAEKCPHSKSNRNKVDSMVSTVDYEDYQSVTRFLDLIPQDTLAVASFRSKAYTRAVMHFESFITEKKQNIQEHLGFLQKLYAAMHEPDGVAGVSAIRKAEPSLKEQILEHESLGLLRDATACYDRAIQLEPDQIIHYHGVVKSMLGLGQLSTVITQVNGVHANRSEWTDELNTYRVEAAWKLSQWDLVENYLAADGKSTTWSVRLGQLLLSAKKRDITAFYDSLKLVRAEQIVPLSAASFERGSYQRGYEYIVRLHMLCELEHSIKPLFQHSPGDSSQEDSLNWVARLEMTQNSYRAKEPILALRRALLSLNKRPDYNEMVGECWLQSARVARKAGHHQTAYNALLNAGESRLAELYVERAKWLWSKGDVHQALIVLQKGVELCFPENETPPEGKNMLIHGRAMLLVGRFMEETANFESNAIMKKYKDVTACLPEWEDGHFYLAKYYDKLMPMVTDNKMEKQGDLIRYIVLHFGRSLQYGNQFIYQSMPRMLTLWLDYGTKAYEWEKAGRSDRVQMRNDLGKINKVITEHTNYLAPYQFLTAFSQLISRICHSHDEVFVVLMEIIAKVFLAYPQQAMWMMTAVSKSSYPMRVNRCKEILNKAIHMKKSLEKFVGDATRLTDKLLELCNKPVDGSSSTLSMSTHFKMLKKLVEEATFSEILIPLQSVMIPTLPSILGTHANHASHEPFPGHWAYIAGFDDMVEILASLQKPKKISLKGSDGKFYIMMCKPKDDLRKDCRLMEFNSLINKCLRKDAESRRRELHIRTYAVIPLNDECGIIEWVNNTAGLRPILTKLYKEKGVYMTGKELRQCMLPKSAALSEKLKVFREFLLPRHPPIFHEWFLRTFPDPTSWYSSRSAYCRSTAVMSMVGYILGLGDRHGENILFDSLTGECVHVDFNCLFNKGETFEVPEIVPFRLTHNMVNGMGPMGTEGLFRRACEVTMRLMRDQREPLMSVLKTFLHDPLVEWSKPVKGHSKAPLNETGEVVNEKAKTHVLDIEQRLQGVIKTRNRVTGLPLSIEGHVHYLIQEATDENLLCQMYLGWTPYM

[1] abbreviates: Ki(app), 5 nM full-length ATR, 10 μM ATP, 25° C.

Like-named read-outs stand apart in the source and are kept apart here.

For `Nc1nn2cc(F)cnc2c1C(=O)Nc1cnccc1N1CC(=O)N2CCCC2C1` (stereo not shown) [I-N-222, 2-amino-6-fluoro-N-(4-(4-oxohexahydropyrrolo[1,2-a]pyrazin-2(1H)-yl)pyridin-3-yl)pyrazolo[1,5-a]pyrimidine-3-carboxamide], the Ki under setting [1] lay in the range of 10 to 1000 nM.
Same read-out and setting: as for `Nc1nn2cc(F)cnc2c1C(=O)Nc1cnccc1N1CCN2CCOC[C@H]2C1` [I-N-116, (R)-2-amino-6-fluoro-N-(4-(hexahydropyrazino[2,1-c][1,4]oxazin-8(1H)-yl)pyridin-3-yl)pyrazolo[1,5-a]pyrimidine-3-carboxamide], the figure is 10 to 1000 nM; as for `Nc1nn2cc(F)cnc2c1C(=O)Nc1cnccc1-c1ccc(C(=O)N2CCC(N3CCC3)CC2)nc1` [I-C-54, 2-amino-N-(6-(4-(azetidin-1-yl)piperidine-1-carbonyl)-[3,4′-bipyridin]-3′-yl)-6-fluoropyrazolo[1,5-a]pyrimidine-3-carboxamide], 10 to 1000 nM; as for `CN(C)CC1CCN(c2ccncc2NC(=O)c2c(N)nn3cc(Cl)cnc23)CC1` [I-N-45, 2-amino-6-chloro-N-(4-(4-((dimethylamino)methyl)piperidin-1-yl)pyridin-3-yl)pyrazolo[1,5-a]pyrimidine-3-carboxamide], 10 to 1000 nM.
Same read-out and setting: as for `Nc1nn2cc(F)cnc2c1C(=O)Nc1cnccc1C1CCN(C2COC2)CC1` [I-C-10, 2-amino-6-fluoro-N-(4-(1-(oxetan-3-yl)piperidin-4-yl)pyridin-3-yl)pyrazolo[1,5-a]pyrimidine-3-carboxamide], the figure is 10 to 1000 nM; as for `CS(=O)(=O)C1CCN(c2c(Cl)cncc2NC(=O)c2c(N)nn3cc(F)cnc23)C1` (stereo not shown) [I-N-287, 2-amino-N-(5-chloro-4-(3-(methylsulfonyl)pyrrolidin-1-yl)pyridin-3-yl)-6-fluoropyrazolo[1,5-a]pyrimidine-3-carboxamide], 10 to 1000 nM.
For the compound `Nc1nn2cc(Cl)cnc2c1C(=O)Nc1cnccc1N1CCC(N2CCC23COC3)CC1` [I-N-109, N-(4-(4-(6-oxa-1-azaspiro[3.3]heptan-1-yl)piperidin-1-yl)pyridin-3-yl)-2-amino-6-chloropyrazolo[1,5-a]pyrimidine-3-carboxamide], the Ki under setting [1] lay within 10 to 1000 nM.
Still for that read-out and setting: as for `Nc1nn2cc(Cl)cnc2c1C(=O)Nc1cnccc1N1CCNC(C(F)(F)F)C1` (stereo not shown) [I-N-70, 2-amino-6-chloro-N-(4-(3-(trifluoromethyl)piperazin-1-yl)pyridin-3-yl)pyrazolo[1,5-a]pyrimidine-3-carboxamide], the figure is 10 to 1000 nM; as for `N#CCc1cnc2c(C(=O)Nc3cnccc3OC3CCCCC3)c(N)nn2c1` [I-O-39, 2-amino-6-(cyanomethyl)-N-(4-(cyclohexyloxy)pyridin-3-yl)pyrazolo[1,5-a]pyrimidine-3-carboxamide], < 10 nM; as for `Nc1nn2cc(F)cnc2c1C(=O)Nc1cnccc1N1CCC(S(=O)(=O)N2CCC2)CC1` [I-N-271, 2-amino-N-(4-(4-(azetidin-1-ylsulfonyl)piperidin-1-yl)pyridin-3-yl)-6-fluoropyrazolo[1,5-a]pyrimidine-3-carboxamide], 10 to 1000 nM.
As for `CC(C)(C#N)c1cnc2c(C(=O)Nc3cnccc3N3CCN(C4COC4)CC3)c(N)nn2c1` [I-N-142, 2-amino-6-(2-cyanopropan-2-yl)-N-(4-(4-(oxetan-3-yl)piperazin-1-yl)pyridin-3-yl)pyrazolo[1,5-a]pyrimidine-3-carboxamide], the Ki lay within 1000 to 5000 nM.
For `Cc1ccnnc1-c1ccncc1NC(=O)c1c(N)nn2cc(F)cnc12` [I-C-33, 2-amino-6-fluoro-N-(4-(4-methylpyridazin-3-yl)pyridin-3-yl)pyrazolo[1,5-a]pyrimidine-3-carboxamide], the Ki under setting [1] fell in the range of 10 to 1000 nM.
With `Nc1nn2cc(F)cnc2c1C(=O)Nc1cncc(Cl)c1N1CCC(C(=O)N2CCN3CCC2C3)CC1` (stereo not shown) [I-G-69, N-(4-(4-(1,4-diazabicyclo[3.2.1]octane-4-carbonyl)piperidin-1-yl)-5-chloropyridin-3-yl)-2-amino-6-fluoropyrazolo[1,5-a]pyrimidine-3-carboxamide], under setting [1], the Ki lay in the range of 10 to 1000 nM.
On the same count and under the same terms, as for `Nc1nn2cc(F)cnc2c1C(=O)Nc1cncc(F)c1N1CCN(C2CCOC2)CC1` (stereo not shown) [I-N-122, 2-amino-6-fluoro-N-(5-fluoro-4-(4-(tetrahydrofuran-3-yl)piperazin-1-yl)pyridin-3-yl)pyrazolo[1,5-a]pyrimidine-3-carboxamide], the figure is 10 to 1000 nM; as for `Nc1nn2cc(F)cnc2c1C(=O)Nc1cncc(F)c1N1CCC(S(=O)(=O)N2CCOCC2)CC1` [I-N-155, 2-amino-6-fluoro-N-(5-fluoro-4-(4-(morpholinosulfonyl)piperidin-1-yl)pyridin-3-yl)pyrazolo[1,5-a]pyrimidine-3-carboxamide], 10 to 1000 nM; as for `CN1CC2(CCN(c3ccncc3NC(=O)c3c(N)nn4cc(F)cnc34)CC2)OC1=O` [I-N-216, 2-amino-6-fluoro-N-(4-(3-methyl-2-oxo-1-oxa-3,8-diazaspiro[4.5]decan-8-yl)pyridin-3-yl)pyrazolo[1,5-a]pyrimidine-3-carboxamide], 10 to 1000 nM.
Regarding `Nc1nn2cc(Cl)cnc2c1C(=O)Nc1cnccc1N1CCC(N2CCn3ccnc3C2)CC1` [I-N-102, 2-amino-6-chloro-N-(4-(4-(5,6-dihydroimidazo[1,2-a]pyrazin-7(8H)-yl)piperidin-1-yl)pyridin-3-yl)pyrazolo[1,5-a]pyrimidine-3-carboxamide], the Ki under setting [1] is 10 to 1000 nM.
Regarding `CN1CCOC2(CCN(c3ccncc3NC(=O)c3c(N)nn4cc(F)cnc34)CC2)C1` [I-N-183, 2-amino-6-fluoro-N-(4-(4-methyl-1-oxa-4,9-diazaspiro[5.5]undecan-9-yl)pyridin-3-yl)pyrazolo[1,5-a]pyrimidine-3-carboxamide], the Ki under setting [1] is 10 to 1000 nM.
Still for that read-out and setting: with `CN1CCC[C@H]1C(=O)N1CCN(c2ccncc2NC(=O)c2c(N)nn3cc(F)cnc23)CC1` [I-N-198, (S)-2-amino-6-fluoro-N-(4-(4-(1-methylpyrrolidine-2-carbonyl)piperazin-1-yl)pyridin-3-yl)pyrazolo[1,5-a]pyrimidine-3-carboxamide] the figure was 10 to 1000 nM; with `CNC1CCN(c2ccncc2NC(=O)c2c(N)nn3cc(Cl)cnc23)CC1` [I-N-87, 2-amino-6-chloro-N-(4-(4-(methylamino)piperidin-1-yl)pyridin-3-yl)pyrazolo[1,5-a]pyrimidine-3-carboxamide], 10 to 1000 nM.
On the same count and under the same terms, with `Nc1nn2cc(F)cnc2c1C(=O)Nc1cncc(F)c1N1CCN(C(=O)C2CN3CCC2CC3)CC1` (stereo not shown) [I-N-130, 2-amino-6-fluoro-N-(5-fluoro-4-(4-(quinuclidine-3-carbonyl)piperazin-1-yl)pyridin-3-yl)pyrazolo[1,5-a]pyrimidine-3-carboxamide] the figure was 10 to 1000 nM.
Regarding `CN(C)Cc1ccc(Oc2ccncc2NC(=O)c2c(N)nn3cc(F)cnc23)cn1` [I-O-3, 2-amino-N-(4-((6-((dimethylamino)methyl)pyridin-3-yl)oxy)pyridin-3-yl)-6-fluoropyrazolo[1,5-a]pyrimidine-3-carboxamide], under setting [1], the Ki lay in the range of 10 to 1000 nM.
Still for that read-out and setting: as for `Nc1nn2cc(F)cnc2c1C(=O)Nc1cnccc1N1CCN([C@@H]2CCOC2)CC1` [I-N-10, (R)-2-amino-6-fluoro-N-(4-(4-(tetrahydrofuran-3-yl)piperazin-1-yl)pyridin-3-yl)pyrazolo[1,5-a]pyrimidine-3-carboxamide], the figure is 10 to 1000 nM; as for `Cc1ncn(-c2ccncc2NC(=O)c2c(N)nn3cc(F)cnc23)c1C` [I-N-269, 2-amino-N-(4-(4,5-dimethyl-1H-imidazol-1-yl)pyridin-3-yl)-6-fluoropyrazolo[1,5-a]pyrimidine-3-carboxamide], 10 to 1000 nM; as for `Cc1ncn(C)c1-c1ccncc1NC(=O)c1c(N)nn2cc(F)cnc12` [I-C-78, 2-amino-N-(4-(1,4-dimethyl-1H-imidazol-5-yl)pyridin-3-yl)-6-fluoropyrazolo[1,5-a]pyrimidine-3-carboxamide], 10 to 1000 nM.
On the same count and under the same terms, with `COCCN1CCN(c2ccncc2NC(=O)c2c(N)nn3cc(Cl)cnc23)CC1` [I-N-60, 2-amino-6-chloro-N-(4-(4-(2-methoxyethyl)piperazin-1-yl)pyridin-3-yl)pyrazolo[1,5-a]pyrimidine-3-carboxamide] the figure was 10 to 1000 nM.
On to `Nc1nn2cc(F)cnc2c1C(=O)Nc1cncc(F)c1N1CCN(C(=O)C2CCN(C3COC3)CC2)CC1` [I-N-211, 2-amino-6-fluoro-N-(5-fluoro-4-(4-(1-(oxetan-3-yl)piperidine-4-carbonyl)piperazin-1-yl)pyridin-3-yl)pyrazolo[1,5-a]pyrimidine-3-carboxamide], for which the Ki under setting [1] was 10 to 1000 nM.
Still for that read-out and setting: as for `Nc1nn2cc(F)cnc2c1C(=O)Nc1cnccc1N1CCC(C(=O)N2CC3(CCO3)C2)CC1` [I-G-90, N-(4-(4-(1-oxa-6-azaspiro[3.3]heptane-6-carbonyl)piperidin-1-yl)pyridin-3-yl)-2-amino-6-fluoropyrazolo[1,5-a]pyrimidine-3-carboxamide], the figure is 10 to 1000 nM; as for `Nc1nn2cc(Cl)cnc2c1C(=O)Nc1cnccc1N1CCN(C2CCC2)CC1` [I-N-48, 2-amino-6-chloro-N-(4-(4-cyclobutylpiperazin-1-yl)pyridin-3-yl)pyrazolo[1,5-a]pyrimidine-3-carboxamide], 10 to 1000 nM; as for `Cc1cncc(NC(=O)c2c(N)nn3cc(F)cnc23)c1N1CCC(C(=O)N2CCN(C)CC2)CC1` [I-G-55, 2-amino-6-fluoro-N-(5-methyl-4-(4-(4-methylpiperazine-1-carbonyl)piperidin-1-yl)pyridin-3-yl)pyrazolo[1,5-a]pyrimidine-3-carboxamide], 10 to 1000 nM.
Still for that read-out and setting: with `Nc1nn2cc(Cl)cnc2c1C(=O)Nc1cnccc1N1CCC(N2CC[S+]([O-])CC2)CC1` [I-N-100, 2-amino-6-chloro-N-(4-(4-(1-oxidothiomorpholino)piperidin-1-yl)pyridin-3-yl)pyrazolo[1,5-a]pyrimidine-3-carboxamide] the figure was 10 to 1000 nM.
